Data reported in US20130224239A1, “ALCOHOLIC EXTRACT OF FUNGI OF GENUS […] AND USE THEREOF” (KING SAUD UNIVERSITY, priority 2011, published 2013).
Values after ≈ are worked out from the molar mass of the structure shown. “Also recorded” adds a separate entry of the source. Marks after values point to notes of the source that are not given here.

Tests used:
Staphylococcus aureus = assay: Minimum inhibitory concentration, agar well diffusion; assay type: cell-based; details: against Staphylococcus aureus
Excerpt: (§1) For antimicrobial screening the well known disc diffusion and agar well diffusion methods were used, together with the determination of minimum inhibitory concentration (MIC), see Duguid et al., Microbial Infections, The English Language Book Society, Churchill Livingston, Edingburgh, London, 1978; vol. 1, page 110.
Agar well diffusion method: On the other hand, the agar well diffusion method was employed for determination of the minimum inhibitory concentration (MIC). The test organisms were separately seeded in the agar medium. The wells (10 mm in diameter) were cut from the agar and […] (different concentrations) was transferred into them. After incubation period, following suitable conditions for the test organism, the diameter of the inhibition zone around the discs was measured in millimeters. The obtained result was the mean of three experiments.
The minimum inhibitory concentration (MIC) of Cunninghamella blakesleeana, C. elegans, C. homothallica and successive extracts and isolated compounds of Cunninghamella elegans against Staphylococcus aureus was determined.
Minimum inhibitory concentration (MIC): The lowest concentration of an antimicrobial agent that will inhibit a visible growth of a microorganism after overnight incubation.

[1] = system: Staphylococcus aureus (RCMB 0106); assay: Antimicrobial screening, disc diffusion; assay type: cell-based; details: compounds isolated from Cunninghamella elegans
Description: (§2) The alcoholic extracts obtained were used for testing their antimicrobial activity. Each extract (0.5 g) was dissolved in 10 ml water. Same concentrations for the successive extracts (using diethyl ether, chloroform, ethyl acetate and n-butanol) were also prepared.
(§3) The representatives of Gram negative bacteria, namely Salmonella typhimuium (RCMB 0104), Escherichia coli (RCMB 0103), Pseudomonas aeruginosa (RCMB 0102) and Gram positive bacteria, namely Bacillus subtilis (RCMB 0107), Staphylococcus aureus (RCMB 0106), Streptococcus pyogenes (RCMB 0109), unicellular fungi, namely Candida albicans (RCMB 5002) and filamentous fungi, namely Aspergillus fumigatus (RCMB 2003) and Penicllium expansum (RCMB 1006) were used as test organisms (RCMB: The Regional Center for Mycology and Biotechnology, Al-azhar University Nasser City, Cairo, Egypt).
as §1
(§4) Disc diffusion method: The agar disc diffusion method is employed for the determination of antimicrobial activities of the extracts of the investigated fungal species. Sterilized paper discs (Whatman No. 1) ([…]) were separately soaked in the extracts and transferred onto the surface of growth media seeded with the test organism. After incubation period, following suitable conditions for the test organism, the diameter of the inhibition zone around the discs was measured in millimeters. The obtained result was the mean of three experiments.
(§5) Each fungal species was grown on malt extract media at 28±2° C. for 14 days. The metabolites of the fungal species were screened for antimicrobial activity. The inhibition zones around each disc were measured, in millimeter, and recorded (Tables 1).

[2] = system: Aspergillus fumigatus (RCMB 2003); assay: Antimicrobial screening, disc diffusion; assay type: cell-based; details: compounds isolated from Cunninghamella elegans
Description: as §2, §3, §1, §4, §5

[3] = system: Bacillus subtilis (RCMB 0107); assay: Antimicrobial screening, disc diffusion; assay type: cell-based; details: compounds isolated from Cunninghamella elegans
Description: as §2, §3, §1, §4, §5

[4] = system: Penicllium expansum (RCMB 1006); assay: Antimicrobial screening, disc diffusion; assay type: cell-based; details: Penicillium expansum; compounds isolated from Cunninghamella elegans
Description: as §2, §3, §1, §4, §5

[5] = system: Staphylococcus aureus infected wounds; assay: Wound healing activity, excision wound model; assay type: in vivo, guinea pig
Description: Swiss albino mice (20-25 g), male Sprague-Dawley rats (160-180 g) and male guinea pigs (240-260 g) were employed in the study. The animals were left for 2 weeks at room conditions to ensure stabilization before use. They were maintained on standard pellet diet and water ad libitum throughout the experiment. • a) Acute Toxicity: Mice were divided into groups of 6 and the methanol extracts of C. blakesleeana, C. elegans and C. homothallica were administered orally in increasing doses. […] Rats of the 1^St group were given a vehicle (1% v/v Tween 80) in a dose of 5 ml kg^−1 and left as normal control. Rats of the 2nd, 3rd, and 4th groups were administered the methanol extracts of C. blakesleeana, C. elegans and C. homothallica, respectively in a dose of 200 mg kg^−1. All medications were administered orally via the aid of an oral tube for 35 days. […] At the end of the experimental period, blood samples (2 mL) were collected from the retro-orbital venous plexus of each rat (under ether anesthesia) into clean centrifuge tubes. The blood samples were allowed to clot at room temperature for 30 min after which they were centrifuged at 10,000 rpm for 5 minutes. Sera were separate with Pasteur pipette into sterile serum sample tubes and used for biochemical assay.
Measurement of Liver and Kidney Function Markers: • Liver functions were evaluated by measuring the serum activity of aspartate aminotransferase (AST) and alanine aminotransferase (ALT) following the method of Reitman and Frankel, Am. J. Clin. Path., 28: 55-60, alkaline phosphatase enzyme (ALP) by the method of Babson et al., Clinical Chemistry, 12: 482-490. Serum levels of total bilirubin, total proteins and albumin were also assayed. Globulin was obtained from the difference between total proteins and albumin. Serum concentrations of uric acid, urea and creatinine were determined colormetrically as measures of kidney functions. All measurements were carried out by protocols well known in the art. • c) Wound Healing Activity: The excision wound model was used to monitor wound contraction and wound closure time. Four groups of male guinea pigs were used in the experiment with 6 animals in each group. At the beginning of the experiment, the dorsal skin of each guinea pig was shaved with an electric clipper. After 24 hours, all animals were anesthetized by diethyl ether and the shaved areas were sterilized with 70% alcoholic solution. A predetermined dorsal area (15 mm×20 mm) was inflicted by cutting away a full thickness of skin (2 mm depth) using toothed forceps, scalpel and pointed scissors. A fresh surgical blade was used for the perpendicular cut in each animal and tension of skin was kept constant during the procedure. Local infection with Staphylococcus aureus was introduced into wounds using 0.5 mL of 10^8 bacteria mL^−1 inoculums. The wounds were left undressed to the open environment and the animals were kept individually in separate cages. • Wounds treatment: Wounds were air exposed and treatment began 24 h after injury. Wounds of the control animals were treated with the vehicle (1% v/v Tween 80). Guinea pigs of the second and third group were treated with total alcohol extract of C. elegans and the isolated compound (adenosine) in a concentration of 5 mg mL^−1, while animals of the fourth group were medicated with latamoxef (Moxalactam)® in a concentration of 30 μg mL^−1 (Reference group). The vehicle, extract, and reference drug were applied topically on the wound surface once a day for 18 days. […] of each tested material was applied slowly, using an insulin syringe, from the central point extending outside the wound area to ensure inclusion of the edges. Swabs were taken on day 5 to confirm the presence of the expected organisms in the pus. • Assessment of wound healing: The wound areas were measured while the animals were under anaesthesia on days 0, 4, 7, 10, 14, and 18 post-wounding by tracing the wound areas onto a transparent tracing paper. […]

[6] = topical 5 mg mL^−1 once a day, n = 6
[7] = topical 5 mg mL^−1 once a day, n = 6, listed as compound 1 (adenosine)

Compound: Nc1ncnc2c1ncn2C1OC(CO)C(O)C1O (stereo not drawn) [Compound 4, 2-(6-amino-9H-purine-9-yl)-5-(hydroxymethyl)oxolane-3,4-diol]
- Minimum inhibitory concentration (Staphylococcus aureus): 020 µg/mL (≈ 74.8 µM)
- MIC (Staphylococcus aureus; read-out: Minimum inhibitory concentration): 20 µg/mL (≈ 74.8 µM)
- Diameter of inhibition zone [1]: 30.0 ± 0.1 mm
- Diameter of inhibition zone ([1]; listed as compound 4): 30.0±0.01 mm
- Diameter of inhibition zone [2]: 00.0 mm
- Diameter of inhibition zone [3]: 00.0 mm
- Diameter of inhibition zone [4]: 00.0 mm
- wound contraction ([5]; Day 14, topical 5 mg mL^−1): 76.50%
- Wound area on day 0 ([5]; day 0, topical 5 mg mL^−1 once a day, n = 6): 300 ± 0.0 mm^2
- Wound area on day 4 ([5]; day 4, topical 5 mg mL^−1 once a day, n = 6): 241.2 ± 4.23* mm^2
- Wound area on day 7 ([5]; day 7, topical 5 mg mL^−1 once a day, n = 6): 168.1 ± 2.18** mm^2
- Wound area on day 10 [5, 6]: 83.4±3.16 mm^2
- Wound area on day 10 [5, 7]: 85.6 ± 4.13*** mm^2
- Wound area on day 14 [5, 6]: 22.4±1.15 mm^2
- Wound area on day 14 [5, 7]: 23.3 ± 1.11*** mm^2
- Wound area on day 18 [5, 6]: 0.0 mm^2
- Wound area on day 18 [5, 7]: 0.0 ± 0.0 mm^2
- wound healing effect (in words) ([5]; topical 5 mg mL−1 on excised infected wound): effective in healing excision type of wounds; also recorded: good wound healing effect
